# Measured values as given in patent US8530493B2, “Indolopyridines as Eg5 kinesin modulators” (4SC AG, priority 2006, dated 2013).
# System: RKO p21 uninduced (proliferating) colon adenocarcinoma cells
# Assay: Alamar Blue cell viability assay, RKO p21 uninduced (proliferating)
# Format: cell-based
# Conditions: Homo sapiens, Table B3, anti-proliferative/cytotoxic activity, 72 hours, read-out: −log EC50 RKO p21 uninduced (proliferating) (converted)
# Procedure: The anti-proliferative/cytotoxic activity of the compounds described herein can be tested on subclones of RKO human colon adenocarcinoma cells (Schmidt et al., Oncogene 19, 2423-2429; 2000) using the Alamar Blue cell viability assay (described in O'Brien et al. Eur J Biochem 267, 5421-5426, 2000). The compounds are dissolved as 10 mM solutions in DMSO and subsequently diluted in semi-logarithmic steps. DMSO dilutions are further diluted 1:100 into Dulbecco's modified Eagle's medium (DMEM) containing 10% fetal calf serum to a final concentration twice as much as the final concentration in the test. RKO subclones are seeded into 96 well flat bottom plates at a density of 4000 cells per well in a volume of 50 μl per well. 24 hours after seeding the 50 μl each of the compound dilutions in DMEM medium are added into each well of the 96 well plate. Each compound dilution is tested as triplicates. Wells containing untreated control cells are filled with 50 μl DMEM medium containing 1% DMSO. The cells are then incubated with the substances for 72 hours at 37° C. in a humidified atmosphere containing 5% carbon dioxide. To determine the viability of the cells, 10 μl of an Alamar Blue solution (Biosource) are added and the fluorescence is measured at an extinction of 544 nm and an emission of 590 nm. For the calculation of the cell viability the emission value from untreated cells is set as 100% viability and the emission rates of treated cells are set in relation to the values of untreated cells. Viabilities are expressed as % values. The Graphpad Prism program is used for the calculation of EC50 values for anti-proliferative/cytotoxic activity out of the obtained dose-response curves.
# To determine the cell cycle specific mode of action, subclones of RKO colon adenocarcinoma cells (RKOp21 or RKOp27 as described by Schmidt et al. in Oncogene 19, 2423-2429; 2000) are seeded into 96 well flat bottom plates at a density of 16000 cells per well in a volume of 50 μl per well in DMEM growth medium with 10% FCS containing 10 μM Ponasterone A. 24 hours after seeding the 50 μl each of the compound dilutions in DMEM medium are added into each well of the 96-well plate. Each compound dilution is tested as triplicates. Wells containing untreated control cells are filled with 50 μl DMEM medium containing 1% DMSO. The cells are then incubated with the substances for 72 hours at 37° C. in a humidified atmosphere containing 5% carbon dioxide. To determine the viability of the cells, 10 μl of an Alamar Blue solution (Biosource) are added and the fluorescence is measured at an extinction of 544 nm and an emission of 590 nm. For the calculation of the cell viability the emission value from untreated cells is set as 100% viability and the emission rates of treated cells are set in relation to the values of untreated cells. Viabilities are expressed as % values. The Graphpad Prism program (GraphPad Software, Inc) is used for the calculation of EC50 values out of the obtained dose-response curves. Viability is compared of proliferating cells grown in the absence of the inducer Ponasterone A, versus viability of cells arrested by the expression of ectopic p27Kip1 induced by Ponasterone A.
# Representative values for anti-proliferation/cytotoxicity [measured as −log EC50 (mol/l)] determined in the aforementioned assays follow from the following tables B1, B2 and B3, in which the numbers of the compounds correspond to the numbers of the examples.
row,Structure (SMILES),EC50 [nM]
1,"C[C@@]12Cc3c([nH]c4cc(F)c(Cl)cc34)[C@@H](c3cccc(O)c3)N1C(=O)N(CCN1CC=CC1)C2=O (racemic) [Example 355, (3aSR,10RS)-6-Chloro-2-[2-(2,5-dihydro-pyrrol-1-yl)-ethyl]-7-fluoro-10-(3-hydroxy-phenyl)-3a-methyl-3a,4,9,10-tetrahydro-2,9,10a-triaza-cyclopenta[b]fluorene-1,3-dione]",39.8 to 251
2,"COc1cc2c3c([nH]c2cc1F)[C@@H](c1cccc(O)c1)N1C(=O)N(CCN(C)CCO)C(=O)[C@]1(C)C3 [Example 246, (3aS,10R)-7-Fluoro-2-{2-[(2-hydroxy-ethyl)-methyl-amino]-ethyl}-10-(3-hydroxy-phenyl)-6-methoxy-3a-methyl-3a,4,9,10-tetrahydro-2,9,10a-triaza-cyclopenta[b]fluorene-1,3-dione]",39.8 to 251
3,"CC(C)N(C)CCN1C(=O)N2[C@H](c3cccc(O)c3)c3[nH]c4ccc(OC(F)F)cc4c3C[C@@]2(C)C1=O (racemic) [Example 278, (3aSR,10RS)-6-(1,1-Difluoro-methoxy)-10-(3-hydroxy-phenyl)-2-[2-(isopropyl-methyl-amino)-ethyl]-3a-methyl-3a,4,9,10-tetrahydro-2,9,10a-triaza-cyclopenta[b]fluorene-1,3-dione]",≤ 39.8
4,"COc1cc2c3c([nH]c2cc1F)[C@@H](c1cccc(O)c1)N1C(=O)N(CCCN2CCC(C)CC2)C(=O)[C@]1(C)C3 (racemic) [Example 327, (3aSR,10RS)-7-Fluoro-10-(3-hydroxy-phenyl)-6-methoxy-3a-methyl-2-[3-(4-methyl-piperidin-1-yl)-propyl]-3a,4,9,10-tetrahydro-2,9,10a-triaza-cyclopenta[b]fluorene-1,3-dione]",39.8 to 251
5,"CC(C)NCCCN1C(=O)N2[C@H](c3cccc(O)c3)c3[nH]c4ccc(Cl)cc4c3C[C@@]2(C)C1=O (racemic) [Example 392, (3aSR,10RS)-6-Chloro-10-(3-hydroxy-phenyl)-2-(3-isopropylamino-propyl)-3a-methyl-3a,4,9,10-tetrahydro-2,9,10a-triaza-cyclopenta[b]fluorene-1,3-dione]",≤ 39.8
6,"CCN(CCO)CCCN1C(=O)N2[C@H](c3cccc(O)c3)c3[nH]c4ccc(Br)cc4c3C[C@@]2(C)C1=O (racemic) [Example 231, (3aSR,10RS)-6-Bromo-2-{3-[ethyl-(2-hydroxy-ethyl)-amino]-propyl}-10-(3-hydroyx-phenyl)-3a-methyl-3a,4,9,10-tetrahydro-2,9,10a-triaza-cyclopenta[b]fluorene-1,3-dione]",≤ 39.8
7,"CC(C)NCCN1C(=O)N2[C@H](c3cccc(O)c3)c3[nH]c4cc(F)c(Cl)cc4c3C[C@@]2(C)C1=O (racemic) [Example 339, (3aSR,10RS)-6-Chloro-7-fluoro-10-(3-hydroxy-phenyl)-2-(2-isopropylamino-ethyl)-3a-methyl-3a,4,9,10-tetrahydro-2,9,10a-triaza-cyclopenta[b]fluorene-1,3-dione]",≤ 39.8
8,"C[C@@]12Cc3c([nH]c4cc(F)c(Cl)cc34)[C@@H](c3cccc(O)c3)N1C(=O)N(CCN1CCCCC1)C2=O (racemic) [Example 356, (3aSR,10RS)-6-Chloro-7-fluoro-10-(3-hydroxy-phenyl)-3a-methyl-2-(2-piperidin-1-yl-ethyl)-3a,4,9,10-tetrahydro-2,9,10a-triaza-cyclopenta[b]fluorene-1,3-dione]",39.8 to 251
9,"COCCNCCCN1C(=O)N2[C@H](c3cccc(O)c3)c3[nH]c4ccc(OC(F)F)cc4c3C[C@@]2(C)C1=O (racemic) [Example 205, (3aSR,10RS)-6-(1,1-Difluoro-methoxy)-10-(3-hydroxy-phenyl)-2-[3-(2-methoxy-ethylamino)-propyl]-3a-methyl-3a,4,9,10-tetrahydro-2,9,10a-triaza-cyclopenta[b]fluorene-1,3-dione]",39.8 to 251
10,"CC(C)(C)NCCN1C(=O)N2[C@H](c3cccc(O)c3)c3[nH]c4ccc(Br)cc4c3C[C@@]2(C)C1=O (racemic) [Example 378, (3aSR,10RS)-6-Bromo-2-(2-tert-butylamino-ethyl)-10-(3-hydroxy-phenyl)-3a-methyl-3a,4,9,10-tetrahydro-2,9,10a-triaza-cyclopenta[b]fluorene-1,3-dione]",≤ 39.8
11,"C[C@@]12Cc3c([nH]c4ccc(Br)cc34)[C@@H](c3cccc(O)c3)N1C(=O)N(CCN1CCOCC1)C2=O (racemic) [Example 388, (3aSR,10RS)-6-Bromo-10-(3-hydroxy-phenyl)-3a-methyl-2-(2-morpholin-4-yl-ethyl)-3a,4,9,10-tetrahydro-2,9,10a-triaza-cyclopenta[b]fluorene-1,3-dione]",39.8 to 251
12,"C=CCNCCCN1C(=O)N2[C@H](c3cccc(O)c3)c3[nH]c4cc(F)c(OC)cc4c3C[C@@]2(C)C1=O (racemic) [Example 334, (3aSR,10RS)-2-(3-Allylamino-propyl)-7-fluoro-10-(3-hydroxy-phenyl)-6-methoxy-3a-methyl-3a,4,9,10-tetrahydro-2,9,10a-triaza-cyclopenta[b]fluorene-1,3-dione]",39.8 to 251
13,"C=CCN(C)CCN1C(=O)N2[C@H](c3cccc(O)c3)c3[nH]c4ccc(OC(F)F)cc4c3C[C@@]2(C)C1=O (racemic) [Example 290, (3aSR,10RS)-2-[2-(Allyl-methyl-amino)-ethyl]-6-(1,1-difluoro-methoxy)-10-(3-hydroxy-phenyl)-3a-methyl-3a,4,9,10-tetrahydro-2,9,10a-triaza-cyclopenta[b]fluorene-1,3-dione]",39.8 to 251
14,"COc1ccc2[nH]c3c(c2c1)C[C@@]1(C)C(=O)N(CCCNC(C)(C)C)C(=O)N1[C@@H]3c1cccc(O)c1 [Example 538, (3aS,10R)-2-(3-tert-Butylamino-propyl)-10-(3-hydroxy-phenyl)-6-methoxy-3a-methyl-3a,4,9,10-tetrahydro-2,9,10a-triaza-cyclopenta[b]fluorene-1,3-dione]",≤ 39.8
15,"C[C@@]12Cc3c([nH]c4cc(F)c(Cl)cc34)[C@@H](c3cccc(O)c3)N1C(=O)N(CCCN1CCCC1)C2=O (racemic) [Example 476, (3aSR,10RS)-6-Chloro-7-fluoro-10-(3-hydroxy-phenyl)-3a-methyl-2-(3-pyrrolidin-1-yl-propyl)-3a,4,9,10-tetrahydro-2,9,10a-triaza-cyclopenta[b]fluorene-1,3-dione]",≤ 39.8
16,"CCOc1ccc2[nH]c3c(c2c1)C[C@@]1(C)C(=O)N(CCN2CCCCCC2)C(=O)N1[C@@H]3c1cccc(O)c1 (racemic) [Example 166, (3aSR,10RS)-2-(2-Azepan-1-yl-ethyl)-6-ethoxy-10-(3-hydroxy-phenyl)-3a-methyl-3a,4,9,10-tetrahydro-2,9,10a-triaza-cyclopenta[b]fluorene-1,3-dione]",39.8 to 251
17,"CCOc1ccc2[nH]c3c(c2c1)C[C@@]1(C)C(=O)N(CCCN2CCC2)C(=O)N1[C@@H]3c1cccc(O)c1 (racemic) [Example 198, (3aSR,10RS)-2-(3-Azetidin-1-yl-propyl)-6-ethoxy-10-(3-hydroxy-phenyl)-3a-methyl-3a,4,9,10-tetrahydro-2,9,10a-triaza-cyclopenta[b]fluorene-1,3-dione]",39.8 to 251
18,"C[C@@]12Cc3c([nH]c4ccc(OC(F)F)cc34)[C@@H](c3cccc(O)c3)N1C(=O)N(CCN1CC=CCC1)C2=O (racemic) [Example 281, (3aSR,10RS)-6-(1,1-Difluoro-methoxy)-2-[2-(3,6-dihydro-2H-pyridin-1-yl)-ethyl]-10-(3-hydroxy-phenyl)-3a-methyl-3a,4,9,10-tetrahydro-2,9,10a-triaza-cyclopenta[b]fluorene-1,3-dione]",39.8 to 251
19,"C[C@@]12Cc3c([nH]c4cc(F)c(Cl)cc34)[C@@H](c3cccc(O)c3)N1C(=O)N(CCNCC1CC1)C2=O (racemic) [Example 341, (3aSR,10RS)-6-Chloro-2-[2-(cyclopropylmethyl-amino)-ethyl]-7-fluoro-10-(3-hydroxy-phenyl)-3a-methyl-3a,4,9,10-tetrahydro-2,9,10a-triaza-cyclopenta[b]fluorene-1,3-dione]",≤ 39.8
